Test results reported in paper PMC6452685, “Lysyl-tRNA synthetase as a drug target in malaria and cryptosporidiosis” (Proceedings of the National Academy of Sciences of the …, 2019).
pEC50: −log10 of the molar value.

Tested on: P. berghei liver schizonts
Assay: P. berghei liver schizonts (luciferase)
Type: cell-based
Conditions: Plasmodium berghei
Protocol: Thi s i s bas ed on met hods prev i ous l y report ed (12 ). In bri ef, HepG 2-A1 6-CD81EGFP cel l s were cul tured at 3 7 °C i n 5% C O2 in DMEM me dia. For both P. berghei-Luc and HepG2 cytotoxi ci ty assays, 3x 10**3 of the HepG2-A16-CD81EGFP20 cells in 5 µl of assay medi um (DMEM wi thout Phenol Red (Li fe Techn ol ogi es, CA), 5% FBS, and 5x Pen Stre p Gl utami ne (Li fe Techn ol ogi es, CA)) at concentrati o n 6x 10**5 cel l s /ml were s eeded i n white s oli d bottom 153 6-well pl at es (cus t om G NF mol d ref# 7891 73-F, Grei ner Bi o-One), 2 0-26 h prior to sporozoites infection. […]
pri or t o i nfect i on 5 0 nl of comp ounds i n 1:3 s eri al di l ut i ons in DMSO (0. 5% fi nal DMSO concentrati on per w el l ) w ere t rans ferred w i t h an Acous ti c Trans fer Sy s t em (ATS) (Bi os ero) t o the cells. Atovaquone (5µ M) and pu romy ci n (1 0 µM) at a single concentration were used as pos i t i v e cont rol s for the Pbluc and He pG 2tox , res pecti v el y . 0. 5% DMSO was us ed as neg ati v e control for both as s ay s . […]
[…] Immediately after addition of the luminescence reagent, the luminescence was measured by the Env i s i on M ul t il abel Reader (Perk i nEl mer). […]
Thi s is a modification of the previously reported method (13). […]

O=C(NCC1(O)CCC(F)(F)CC1)c1cc(=O)c2cc(F)ccc2o1 [Compound 5]
pEC50: 6.05
